From US11999718B2, “Pyrazole derivatives” (Aptabio Therapeutics Inc., priority 2021, dated 2024)

What was measured:
IL-6 = assay: Expression of IL-6 in pancreatic cancer associated fibroblasts (ELISA); format: cell-based, human; settings: P.CAF cells, 48 hours treatment, FIG. 5
Protocol: (§1) In order to confirm the effect of the compounds of Synthetic examples of the present invention on inflammation reaction in cancer associated fibroblasts, whether the expression of IL6 and IL8 was inhibited by the compounds of Synthetic examples in pancreatic cancer associated fibroblasts (P.CAF) was observed.
(§2) After inoculating 1.5×10^5 cells in a 6 well plate and then culturing in P.CAF complete media for 48 hours, the compounds of Synthetic examples were treated by 10, 20, 30, 40, 60 and 80 μM for 48 hours according to each condition, and then the expression of IL-6 and IL-8 was confirmed by performing ELISA with Quantkine ELISA kit (R&D systems) as follows.
(§3) 100 μl of the culture solution in which the compounds of Synthetic examples were treated for 48 hours was added to the microplate strip for analysis including a 100 μl assay diluent and left at a room temperature for 2 hours and then the contents were removed, and then it was washed with 400 μl wash buffer 4 times. 200 μl of a human IL-6 or IL-8 conjugate was added and left at a room temperature for 2 hours and then the contents were removed, and then it was washed with 400 μl wash buffer 4 times. 200 μl of substrate solution was added and left at a room temperature for 20 minutes and then 50 μl of stop solution was added, and the absorbance at a wavelength of 450 nm was measured within 30 minutes to confirm the expression level of IL-6 and IL-8.

IL-8 = assay: Expression of IL-8 in pancreatic cancer associated fibroblasts (ELISA); format: cell-based, human; settings: P.CAF cells, 48 hours treatment, FIG. 6
Protocol: as §1, §2, §3

[1] = system: HL-60 cells differentiated into neutrophil cells; assay: ROS production induced by PMA in HL-60 cells differentiated into neutrophil cells; format: cell-based; settings: Homo sapiens, 0.5 h; differentiated HL-60 cells, compounds 0.5 uM (0.5 mM in the source) for 30 minutes, 200 nM PMA, L-012 luminescence
From the text: In order to confirm the effect of the compounds of Synthetic examples on ROS production from fibroblasts and specific substrate cells, ROS production was induced by stimulation of PMA (phorbol 12-myristate 13-acetate), TGF-β1, palmitate or high concentration-glucose, or the like, in HL-60 cells differentiated into neutrophil cells by DMSO treatment, NHLF (normal human lung fibroblast, Lonza), LX-2 (human hepatic stellate cells, Sigma), ARPE19 (human retinal pigment epithelial cell, ATCC), and KEL-FIB (Keloid fibroblast, ATCC) cells, and under this condition, the inhibitory effect of ROS production of the compounds of Synthetic Examples was observed.
HL-60 cells (human leukemia cells, ATCC) were suspended in a medium containing 1.25% DMSO (RPMI+10% FBS) and cultured under the condition of 5% CO2, 37° C. for 6 days, thereby inducing differentiation into neutrophil cells. […] Then, to each well comprising the cells and drug, 200 nM PMA was treated to induce ROS production, and such ROS production was measured by observing the luminescence level of each well using 100 μM L-012.

HFF-1 cells = assay: Collagen gel contraction induced by TGF-β1 in HFF-1 cells; format: cell-based, human; settings: HFF-1 cells in collagen gel, TGF-β1 10 ng/ml, 72 hours, FIG. 7
From the text: In order to confirm the effect of the compounds of Synthetic examples on differentiation of fibroblasts into myofibroblasts, the inhibitory effect of the compounds of Synthetic examples on the phenomenon of contraction of gel induced by interaction of human foreskin fibroblasts (HFF-1, ATCC) and collagen was observed.
The mixed solution of the HFF-1 cells and collagen (bovine type I collagen) prepared at a concentration of 3×10^6 cells/ml was aliquoted in a 24 well plate, respectively, and then cultured under the condition of 5% CO2, 37° C. for 1 hour to induce gel polymerization. Then, after suspending the gel attached on the plate from the plate using a spoon, a medium comprising TGF-β1 and Synthetic example compounds was added to each well. After culturing for 72 hours, the Synthetic example compounds were treated by 10, 20, 30, 40, 60 and 80 μM to measure the size of the gel, and thereby, the degree of contraction of the gel by drug treatment was confirmed.

SMILES	IL-6 expressed in P.CAF (IL-6)	IL-8 expressed in P.CAF (IL-8)	inhibition at 0.5 µM [1] [%]	contraction of the gel induced by TGF-β1 (HFF-1 cells)
CN(Cc1ccc(F)cc1F)C1CCc2nn(-c3ccccn3)c(O)c2C1 (centres unmarked) [Compound 5, 5-[(2,4-Difluorobenzyl)methylamino]-2-(pyridin-2-yl)-4,5,6,7-tetrahydro-2H-indazol-3-ol]	effectively inhibited	effectively inhibited	> 70	effectively inhibited
COc1cccc(CN(C)C2CCc3nn(-c4ccccn4)c(O)c3C2)c1 (centres unmarked) [Compound 13, 5-[(3-Methoxybenzyl)methylamino]-2-(pyridin-2-yl)-4,5,6,7-tetrahydro-2H-indazol-3-ol]	–	–	> 70	effectively inhibited
Oc1c2c(nn1-c1ccccn1)CCC(N1CCCCC1)C2 (centres unmarked) [Compound 14, 5-Piperidin-1-yl-2-(pyridin-2-yl)-4,5,6,7-tetrahydro-2H-indazol-3-ol]	–	–	50 to 70	effectively inhibited
CN(Cc1cccc(S(C)(=O)=O)c1)C1CCc2nn(-c3ccccn3)c(O)c2C1 (centres unmarked) [Compound 23, 5-[Methyl(3-methylsulfonylbenzyl)amino]-2-(pyridin-2-yl)-4,5,6,7-tetrahydro-2H-indazol-3-ol]	effectively inhibited	effectively inhibited	50 to 70	effectively inhibited
CN(C1CCc2nn(-c3ccccn3)c(O)c2C1)C1CCCc2cccnc21 (centres unmarked) [Compound 33, 5-[Methyl(5,6,7,8-tetrahydroquinolin-8-yl)amino]-2-(pyridin-2-yl)-4,5,6,7-tetrahydro-2H-indazol-3-ol]	effectively inhibited	effectively inhibited	50 to 70	effectively inhibited
O=C(C1CC1)N1CCN(C2CCc3nn(-c4ccccn4)c(O)c3C2)CC1 (centres unmarked) [Compound 38, Cyclopropyl[4-(3-hydroxy-2-(pyridin-2-yl)-4,5,6,7-tetrahydro-2-indazol-5-yl)piperazin-1-yl]methanone]	effectively inhibited	effectively inhibited	> 70	effectively inhibited
CN(Cc1cc2ccccc2cn1)C1CCc2nn(-c3ccccn3)c(O)c2C1 (centres unmarked) [Compound 62, 5-[(Isoquinolin-3-ylmethyl)methylamino]-2-(pyridin-2-yl)-4,5,6,7-tetrahydro-2H-indazol-3-ol]	effectively inhibited	effectively inhibited	> 70	effectively inhibited
CN(Cc1ccc2ncccc2c1)C1CCc2nn(-c3ccccn3)c(O)c2C1 (centres unmarked) [Compound 63, 5-[Methyl(quinolin-6-ylmethyl)amino]-2-(pyridin-2-yl)-4,5,6,7-tetrahydro-2H-indazol-3-ol]	effectively inhibited	effectively inhibited	> 70	effectively inhibited
Oc1c2c(nn1-c1ccccn1)CCC(N1CCCC1)C2 (centres unmarked) [Compound 96, 2-(Pyridin-2-yl)-5-(pyrrolidin-1-yl)-4,5,6,7-tetrahydro-2H-indazol-3-ol]	–	–	50 to 70	–
C=CC(=O)N1CCN(C2CCc3nn(-c4ccccn4)c(O)c3C2)CC1 (centres unmarked) [Compound 97, 1-(4-(3-Hydroxy-2-(pyridin-2-yl)-4,5,6,7-tetrahydro-2H-indazol-5-yl)piperazin-1-yl)prop-2-en-1-one]	–	–	50 to 70	–
CN(C)C/C=C/C(=O)N1CCN(C2CCc3nn(-c4ccccn4)c(O)c3C2)CC1 (centres unmarked) [Compound 98, (E)-4-(dimethylamino)-1-(4-(3-hydroxy-2-(pyridin-2-yl)-4,5,6,7-tetrahydro-2H-indazol-5-yl)piperazin-1-yl)but-2-en-1-one]	–	–	50 to 70	–
CN(C)C/C=C/C(=O)N(C)C1CCc2nn(-c3ccccn3)c(O)c2C1 (centres unmarked) [Compound 99, (E)-4-(dimethylamino)-N-(3-hydroxy-2-(pyridin-2-yl)-4,5,6,7-tetrahydro-2H-indazol-5-yl)-N-methylbut-2-enamide]	–	–	50 to 70	–
CCCN1CCN(C2CCc3nn(-c4ccccn4)c(O)c3C2)CC1 (centres unmarked) [Compound 100, 5-(4-Propylpiperazin-1-yl)-2-(pyridin-2-yl)-4,5,6,7-tetrahydro-2H-indazol-3-ol]	–	–	50 to 70	–
CN1CCN(C2CCc3nn(-c4ccc(F)cc4)c(O)c3C2)CC1 (centres unmarked) [Compound 102, 2-(4-Fluorophenyl)-5-(4-methylpiperazin-1-yl)-4,5,6,7-tetrahydro-2H-indazol-3-ol]	–	–	> 70	–
CN1CCN(C2CCc3nn(-c4ccc(C#N)cc4)c(O)c3C2)CC1 (centres unmarked) [Compound 103, 4-(3-Hydroxy-5-(4-methylpiperazin-1-yl)-4,5,6,7-tetrahydro-2H-indazol-2-yl)benzonitrile]	–	–	> 70	–
Oc1c2c(nn1-c1ccccn1)CCC(N1CCN(CCc3ccccc3)CC1)C2 (centres unmarked) [Compound 104, 5-(4-Penethylpiperazin-1-yl)-2-(pyridin-2-yl)-4,5,6,7-tetrahydro-2H-indazol-3-ol]	–	–	50 to 70	–
Oc1c2c(nn1-c1ccccn1)CCC(N1CCN(Cc3ccccc3)CC1)C2 (centres unmarked) [Compound 105, 5-(4-Benzylpiperazin-1-yl)-2-(pyridin-2-yl)-4,5,6,7-tetrahydro-2H-indazol-3-ol]	–	–	> 70	–
Oc1c2c(nn1-c1ccccn1)CCC(N1CCN(CC3CCCCC3)CC1)C2 (centres unmarked) [Compound 106, 5-(4-(Cyclohexylmethyl)piperazin-1-yl)-2-(pyridin-2-yl)-4,5,6,7-tetrahydro-2H-indazol-3-ol]	–	–	> 70	–
Oc1c2c(nn1-c1ccccn1)CCC(N1CCN(CCCc3ccccc3)CC1)C2 (centres unmarked) [Compound 107, 5-(4-(3-Phenylpropyl)piperazin-1-yl)-2-(pyridin-2-yl)-4,5,6,7-tetrahydro-2H-indazol-3-ol]	–	–	> 70	–
CN1CCN(C2CCc3nn(-c4ncccn4)c(O)c3C2)CC1 (centres unmarked) [Compound 108, 5-(4-Methylpiperazin-1-yl)-2-(pyrimidin-2-yl)-4,5,6,7-tetrahydro-2H-indazol-3-ol]	–	–	> 70	–
Cc1ccc(N2CCN(C3CCc4nn(-c5ccccn5)c(O)c4C3)CC2)cc1 (centres unmarked) [Compound 126, 2-(Pyridin-2-yl)-5-(4-(p-tolyl)piperazin-1-yl)-4,5,6,7-tetrahydro-2H-indazol-3-ol]	–	–	> 70	–
COc1ccc(N2CCN(C3CCc4nn(-c5ccccn5)c(O)c4C3)CC2)cc1 (centres unmarked) [Compound 129, 5-(4-(4-Methoxyphenyl)piperazin-1-yl)-2-(pyridin-2-yl)-4,5,6,7-tetrahydro-2H-indazol-3-ol]	–	–	> 70	–
CC(=O)c1ccc(N2CCN(C3CCc4nn(-c5ccccn5)c(O)c4C3)CC2)cc1 (centres unmarked) [Compound 130, 1-(4-(4-(3-Hydroxy-2-(pyridin-2-yl)-4,5,6,7-tetrahydro-2H-indazol-5-yl)piperazin-1-yl)phenyl)ethan-1-one]	–	–	> 70	–
CS(=O)(=O)c1ccc(N2CCN(C3CCc4nn(-c5ccccn5)c(O)c4C3)CC2)cc1 (centres unmarked) [Compound 131, 5-(4-(4-(Methylsulfonyl)phenyl)piperazin-1-yl)-2-(pyridin-2-yl)-4,5,6,7-tetrahydro-2H-indazol-3-ol]	–	–	> 70	–
